PubChem BioAssay AID280 (DTP/NCI, 2004)
Several values for one entry are separate records, joined by “and”; a condition that tells them apart may be missing. Equal entries are not always repeated. Toxic doses and inconclusive results are not listed. The calls were made as follows: active = survival T/C of 150% or more; inactive = T/C below 125% in these data.

System: nude mice, LOX melanoma ip, survival T/C
Assay: NCI In Vivo Anticancer Drug Screen. Data for tumor model Human Amelanotic Melanoma (LOX) (intraperitoneal) in NU/NU BALB/C (nude) mice
Conditions: endpoint: median survival time, higher = longer survival
Experimental: The antitumor activity of compounds was measured in mice bearing transplantable tumors. Survival or tumor size were measured and the results are expressed as the measurement made in the treated group (T) divided by the measurement made in the vehicle treated control group (C). The tumor model used in this assay is Human Amelanotic Melanoma (LOX) (intraperitoneal) in NU/NU BALB/C (nude) mice

[1] = dose: 50.0 mg/kg/injection, schedule: Q04DX003 (ip), vehicle: saline with Tween-80
[2] = dose: 100.0 mg/kg/injection, schedule: Q04DX003 (ip), vehicle: saline with Tween-80
[3] = dose: 400.0 mg/kg/injection, schedule: Q04DX003 (ip), vehicle: saline with Tween-80
[4] = dose: 25.0 mg/kg/injection, schedule: Q04DX003 (ip), vehicle: saline with Tween-80
[5] = dose: 200.0 mg/kg/injection, schedule: Q04DX003 (ip), vehicle: saline with Tween-80
[6] = dose: 75.0 mg/kg/injection, schedule: Q04DX003 (ip), vehicle: other
[7] = dose: 150.0 mg/kg/injection, schedule: Q04DX003 (ip), vehicle: other

Measured: T/C

CCOC(=O)c1c[nH]c2ccc3c(nc(C)n3C)c2c1=O
inactive: dose: 50.0 mg/kg/injection, schedule: Q04DX003 (ip), vehicle: Klucel (hydroxypropylcellulose) (HPC) 100 % of control | dose: 100.0 mg/kg/injection, schedule: Q04DX003 (ip), vehicle: Klucel (hydroxypropylcellulose) (HPC) 104 % of control | dose: 200.0 mg/kg/injection, schedule: Q04DX003 (ip), vehicle: Klucel (hydroxypropylcellulose) (HPC) 93 % of control | dose: 400.0 mg/kg/injection, schedule: Q04DX003 (ip), vehicle: Klucel (hydroxypropylcellulose) (HPC) 100 % of control | dose: 800.0 mg/kg/injection, schedule: Q04DX003 (ip), vehicle: Klucel (hydroxypropylcellulose) (HPC) 94 % of control

COc1ccc(/C=C/C(=O)c2ccccc(=O)c2O)c(OC)c1OC
inactive: dose: 6.85 mg/kg/injection, schedule: Q04DX003 (ip), vehicle: Klucel (hydroxypropylcellulose) (HPC) 100 % of control | dose: 13.7 mg/kg/injection, schedule: Q04DX003 (ip), vehicle: Klucel (hydroxypropylcellulose) (HPC) 100 % of control | dose: 27.5 mg/kg/injection, schedule: Q04DX003 (ip), vehicle: Klucel (hydroxypropylcellulose) (HPC) 110 % of control | dose: 55.0 mg/kg/injection, schedule: Q04DX003 (ip), vehicle: Klucel (hydroxypropylcellulose) (HPC) 104 % of control | dose: 110.0 mg/kg/injection, schedule: Q04DX003 (ip), vehicle: Klucel (hydroxypropylcellulose) (HPC) 110 % of control

Cc1ccc2c(c1)n([O-])c1cc(Cl)ccc1[n+]2=O
inactive: [1] 111 % of control | [2] 123 % of control | dose: 172.0 mg/kg/injection, schedule: Q04DX003 (ip), vehicle: saline with Tween-80 116 % of control | dose: 288.0 mg/kg/injection, schedule: Q04DX003 (ip), vehicle: saline with Tween-80 108 % of control | [3] 111 % of control | dose: 480.0 mg/kg/injection, schedule: Q04DX003 (ip), vehicle: saline with Tween-80 113 % of control | dose: 800.0 mg/kg/injection, schedule: Q04DX003 (ip), vehicle: saline with Tween-80 107 % of control | dose: 1333.0 mg/kg/injection, schedule: Q04DX003 (ip), vehicle: saline with Tween-80 110 % of control

N=C(N)SCc1cccc2c(=O)cc(-c3ccccc3)oc12
inactive: dose: 25.0 mg/kg/injection, schedule: Q04DX003 (ip), vehicle: suspension in saline 101 % of control | dose: 50.0 mg/kg/injection, schedule: Q04DX003 (ip), vehicle: suspension in saline 111 % of control | dose: 100.0 mg/kg/injection, schedule: Q04DX003 (ip), vehicle: suspension in saline 118 % of control | dose: 400.0 mg/kg/injection, schedule: Q04DX003 (ip), vehicle: suspension in saline 124 % of control

COC(=O)NC1C(C)OC(OC2C/C=C(/C)C3C=CC4C(OC5CC(OC6CC(OC7CC(O)C(O)C(C)O7)C(OC7CC(O)C(OC)C(C)O7)C(C)O6)C(O)C(C)O5)C(C)CC(C)C4C3(C)/C(O)=C3\C(=O)OC4(CC(C)C(CO)=CC4/C=C\2C)C3=O)CC1(C)[N+](=O)[O-] (stereo unspecified)
inactive: dose: 75.0 mg/kg/injection, schedule: Q04DX003 (ip), vehicle: water 93 % of control | dose: 150.0 mg/kg/injection, schedule: Q04DX003 (ip), vehicle: water 120 % of control

CN(C)[C@@H]1C(=O)C(C(=O)NCN2CCN(C(=N)N=C(N)N)CC2)=C(O)[C@@]2(O)C(=O)C3=C(O)c4c(O)cccc4[C@@](C)(O)[C@H]3C[C@@H]12
inactive: dose: 1.25 mg/kg/injection, schedule: Q04DX003 (ip), vehicle: suspension in saline 114 % of control | dose: 2.5 mg/kg/injection, schedule: Q04DX003 (ip), vehicle: suspension in saline 107 % of control | dose: 3.6 mg/kg/injection, schedule: Q04DX003 (ip), vehicle: suspension in saline 112 % of control | dose: 5.0 mg/kg/injection, schedule: Q04DX003 (ip), vehicle: suspension in saline 114 % of control | dose: 6.0 mg/kg/injection, schedule: Q04DX003 (ip), vehicle: suspension in saline 105 % of control | dose: 10.0 mg/kg/injection, schedule: Q04DX003 (ip), vehicle: suspension in saline 103 % of control and 100 % of control | dose: 17.0 mg/kg/injection, schedule: Q04DX003 (ip), vehicle: suspension in saline 112 % of control | dose: 28.0 mg/kg/injection, schedule: Q04DX003 (ip), vehicle: suspension in saline 89 % of control

COC1CC2C=C(C)/C=C/C=C/C(=O)NC(c3ccccc3)C/C=C/CCC(O)CC(=O)C2=C1O (stereo unspecified)
active: dose: 37.5 mg/kg/injection, schedule: Q04DX003 (ip), vehicle: Klucel (hydroxypropylcellulose) (HPC) 187 % of control
inactive: dose: 18.75 mg/kg/injection, schedule: Q04DX003 (ip), vehicle: Klucel (hydroxypropylcellulose) (HPC) 112 % of control

CCC(=O)Sc1ccccc1C(=O)Nc1ccc(Cl)cc1
inactive: [4] 99 % of control | [1] 107 % of control | [2] 110 % of control | [5] 113 % of control

[CH3][Sn]([CH3])([Cl])[c]1cc[c]([Sn]([CH3])([CH3])[Cl])cc1
inactive: dose: 0.63 mg/kg/injection, schedule: Q04DX003 (ip), vehicle: saline 91 % of control | dose: 1.25 mg/kg/injection, schedule: Q04DX003 (ip), vehicle: saline 103 % of control | dose: 2.5 mg/kg/injection, schedule: Q04DX003 (ip), vehicle: saline 98 % of control | dose: 5.0 mg/kg/injection, schedule: Q04DX003 (ip), vehicle: saline 107 % of control

COc1cc(C(CC(C)=O)c2cc3c(cc2OC(C)=O)OCO3)cc(OC)c1OC (stereo unspecified) (tested in a mixture with another compound)
inactive: [4] 104 % of control | [1] 106 % of control | [2] 115 % of control | [5] 120 % of control

CCC(=O)[O][Bi]([c]1ccccc1)[c]1ccccc1
inactive: dose: 3.13 mg/kg/injection, schedule: Q04DX003 (ip), vehicle: Klucel (hydroxypropylcellulose) (HPC) 93 % of control | dose: 6.25 mg/kg/injection, schedule: Q04DX003 (ip), vehicle: Klucel (hydroxypropylcellulose) (HPC) 88 % of control | dose: 12.5 mg/kg/injection, schedule: Q04DX003 (ip), vehicle: Klucel (hydroxypropylcellulose) (HPC) 110 % of control | dose: 25.0 mg/kg/injection, schedule: Q04DX003 (ip), vehicle: Klucel (hydroxypropylcellulose) (HPC) 100 % of control

CC(=O)O[C@H]1C(=O)[C@@]2(C)[C@H]([C@H](OC(=O)c3ccccc3)[C@]3(O)C[C@H](OC(=O)[C@H](O)[C@@H](NC(=O)c4ccccc4)c4ccccc4)C(C)=C1C3(C)C)[C@]1(OC(C)=O)CO[C@@H]1C[C@@H]2O
inactive: dose: 15.0 mg/kg/injection, schedule: Q01DX009 (ip), vehicle: Klucel (hydroxypropylcellulose) (HPC) 105 % of control and 93 % of control
active: dose: 1.88 mg/kg/injection, schedule: Q01DX009 (ip), vehicle: Klucel (hydroxypropylcellulose) (HPC) 172 % of control | dose: 3.75 mg/kg/injection, schedule: Q01DX009 (ip), vehicle: Klucel (hydroxypropylcellulose) (HPC) 158 % of control and 173 % of control | dose: 7.5 mg/kg/injection, schedule: Q01DX009 (ip), vehicle: Klucel (hydroxypropylcellulose) (HPC) 170 % of control

NC(=S)N/N=C/c1cc(=O)c2cc(Cl)ccc2o1
inactive: [6] 107 % of control | [7] 101 % of control | dose: 300.0 mg/kg/injection, schedule: Q04DX003 (ip), vehicle: other 100 % of control | dose: 600.0 mg/kg/injection, schedule: Q04DX003 (ip), vehicle: other 105 % of control | dose: 1200.0 mg/kg/injection, schedule: Q04DX003 (ip), vehicle: other 101 % of control

O=C(NC(Cc1ccc(I)cc1)C(=O)O)c1ccc(Br)cc1 (stereo unspecified)
active: dose: 37.5 mg/kg/injection, schedule: Q04DX003 (ip), vehicle: other 151 % of control
inactive: dose: 18.75 mg/kg/injection, schedule: Q04DX003 (ip), vehicle: other 94 % of control | dose: 18.75 mg/kg/injection, schedule: Q04DX003 (ip), vehicle: sodium bicarbonate 111 % of control | dose: 37.5 mg/kg/injection, schedule: Q04DX003 (ip), vehicle: sodium bicarbonate 107 % of control | [6] 91 % of control | dose: 75.0 mg/kg/injection, schedule: Q04DX003 (ip), vehicle: sodium bicarbonate 96 % of control | [7] 98 % of control | dose: 150.0 mg/kg/injection, schedule: Q04DX003 (ip), vehicle: sodium bicarbonate 86 % of control | dose: 300.0 mg/kg/injection, schedule: Q04DX003 (ip), vehicle: sodium bicarbonate 106 % of control

O=C(O)C1CC(O)CN1 (stereo unspecified)
inactive: dose: 75.0 mg/kg/injection, schedule: Q04DX003 (ip), vehicle: saline 108 % of control | dose: 300.0 mg/kg/injection, schedule: Q04DX003 (ip), vehicle: saline 112 % of control | dose: 600.0 mg/kg/injection, schedule: Q04DX003 (ip), vehicle: saline 107 % of control | dose: 1200.0 mg/kg/injection, schedule: Q04DX003 (ip), vehicle: saline 114 % of control

COc1ccc2oc3c(ccc[n+]3C)c(=O)c2c1
inactive: [1] 108 % of control | [2] 107 % of control | [5] 102 % of control | [3] 101 % of control
